# In US12157746B2, “Tetrahydro-1H-pyrazino[2,1-a]isoindolylquinoline compounds for the treatment of autoimmune disease” (F. HOFFMANN-LA ROCHE AG, priority 2018, dated 2024):
# pIC50: −log10 of the molar value.
# Biological target: T1, human TLR9 (Homo sapiens, UniProt Q9NR96)
# T1 sequence (Q9NR96 26-1032): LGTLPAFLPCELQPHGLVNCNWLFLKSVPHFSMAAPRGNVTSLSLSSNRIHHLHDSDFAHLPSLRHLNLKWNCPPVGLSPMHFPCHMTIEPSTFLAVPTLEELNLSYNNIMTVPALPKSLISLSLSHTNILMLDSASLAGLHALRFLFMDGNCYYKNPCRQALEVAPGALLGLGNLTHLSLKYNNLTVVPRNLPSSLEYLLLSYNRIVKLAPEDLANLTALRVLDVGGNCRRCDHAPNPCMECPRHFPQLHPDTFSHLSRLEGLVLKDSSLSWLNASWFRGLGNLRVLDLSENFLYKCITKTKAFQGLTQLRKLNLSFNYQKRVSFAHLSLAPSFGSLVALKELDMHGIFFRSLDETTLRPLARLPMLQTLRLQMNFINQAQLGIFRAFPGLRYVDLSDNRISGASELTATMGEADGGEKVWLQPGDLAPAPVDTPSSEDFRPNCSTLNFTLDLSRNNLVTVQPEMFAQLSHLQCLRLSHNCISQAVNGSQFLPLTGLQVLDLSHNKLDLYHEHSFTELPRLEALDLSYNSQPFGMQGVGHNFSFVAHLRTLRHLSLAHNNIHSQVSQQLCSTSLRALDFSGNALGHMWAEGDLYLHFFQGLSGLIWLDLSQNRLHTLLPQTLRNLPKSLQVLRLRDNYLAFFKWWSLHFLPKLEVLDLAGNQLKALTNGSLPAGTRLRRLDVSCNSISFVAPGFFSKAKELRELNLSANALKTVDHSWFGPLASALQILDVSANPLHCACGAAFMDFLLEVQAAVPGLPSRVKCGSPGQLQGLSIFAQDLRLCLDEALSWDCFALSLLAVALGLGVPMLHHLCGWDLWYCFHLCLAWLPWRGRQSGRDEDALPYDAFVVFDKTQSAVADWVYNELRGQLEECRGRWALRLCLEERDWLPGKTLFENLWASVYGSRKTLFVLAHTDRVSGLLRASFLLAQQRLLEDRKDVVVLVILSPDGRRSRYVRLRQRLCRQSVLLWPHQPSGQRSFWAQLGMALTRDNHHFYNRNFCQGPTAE
# Experiment: HEK293-Blue-hTLR-9 cells assay
# Assay type: cell-based
# Settings: HEK293-Blue-hTLR9 cells, ODN2006 stimulation, 20 hrs, SEAP reporter; read-out: HEK/hTLR9 IC50
# Source text: HEK293-Blue-hTLR-9 Cells Assay:
# A stable HEK293-Blue-hTLR-9 cell line was purchased from InvivoGen (Cat. #: hkb-htlr9, San Diego. California USA). These cells were originally designed for studying the stimulation of human TLR9 by monitoring the activation of NF-κB. A SEAP (secreted embryonic alkaline phosphatase) reporter gene was placed under the control of the IFN-β minimal promoter fused to five NF-κB and AP-1-binding sites. The SEAP was induced by activating NF-κB and AP-1 via stimulating HEK-Blue hTLR9 cells with TLR9 ligands. Therefore the reporter expression was declined by TLR9 antagonist under the stimulation of a ligand, such as ODN2006 (Cat. #: tlrl-2006-1, Invivogen, San Diego, California USA), for incubation of 20 hrs. The cell culture supernatant SEAP reporter activity was determined using QUANTI-Blue™ kit (Cat. #: rep-qb1, Invivogen, San Diego, California, USA) at a wavelength of 640 nm, a detection medium that turns purple or blue in the presence of alkaline phosphatase.
# HEK293-Blue-hTLR9 cells were incubated at a density of 250.000-450,000 cells/mL in a volume of 170 μL in a 96-well plate in Dulbecco's Modified Eagle's medium (DMEM) containing 4.5 g/L glucose, 50 U/mL penicillin, […], […], 2 mM L-glutamine, 10% (v/v) heat-inactivated fetal bovine serum with addition of 20 μL test compound 1n a serial dilution in the presence of final DMSO at 1% and 10 μL of 20 uM ODN2006 in above DMEM, perform incubation under 37° C. in a CO2 incubator for 20 hrs. Then 20 μL of the supernatant from each well was incubated with 180 μL Quanti-blue substrate solution at 37° C. for 2 h and the absorbance was read at 620˜655 nm using a spectrophotometer. The signaling pathway that TLR9 activation leads to downstream NF-κB activation has been widely accepted, and therefore similar reporter assay was modified for evaluating TLR9 antagonist.
row,SMILES,pIC50
1,"C[C@@H]1CN(c2ccc(C#N)c3ncsc23)C[C@@H]2c3ccc(N4CCNCC4)cc3CN12 [Example 6, 7-[(4R,10bS)-4-methyl-8-piperazin-1-yl-3,4,6,10b-tetrahydro-1H-pyrazino[2,1-a]isoindol-2-yl]-1,3-benzothiazole-4-carbonitrile]",6.81
2,"CO[C@H]1CN(c2ccc3c(c2)CN2[C@H](C)CN(c4ccc(C#N)n5nccc45)C[C@H]32)C[C@@H]1N [Example 95, 4-[(4R,10bS)-8-[(3S,4S)-3-amino-4-methoxy-pyrrolidin-1-yl]-4-methyl-3,4,6,10b-tetrahydro-1H-pyrazino[2,1-a]isoindol-2-yl]pyrazolo[1,5-a]pyridine-7-carbonitrile]",6.67
3,"CO[C@@H]1CNC[C@H]1Nc1ccc2c(c1)CN1[C@H](C)CN(c3ccc(C#N)c4ncccc34)C[C@H]21 [Example 34, 5-[(4R,10bS)-8-[[(3R,4R)-4-methoxypyrrolidin-3-yl]amino]-4-methyl-3,4,6,10b-tetrahydro-1H-pyrazino[2,1-a]isoindol-2-yl]quinoline-8-carbonitrile]",7.18
4,"C[C@@H]1CN(c2ccc(C#N)c3ncccc23)C[C@@H]2c3ccc(N[C@H]4CNC[C@@H]4F)cc3CN12 [Example 31, 5-[(4R,10bS)-8-[[(3S,4S)-4-fluoropyrrolidin-3-yl]amino]-4-methyl-3,4,6,10b-tetrahydro-1H-pyrazino[2,1-a]isoindol-2-yl]quinoline-8-carbonitrile]",7.03
5,"C[C@@H]1CN(c2ccc(C#N)c3ncccc23)C[C@@H]2c3ccc(N4CCC(N)(CO)C4)cc3CN12 (stereo partly drawn) [Example 19, 5-[(4R,10bS)-8-[3-amino-3-(hydroxymethyl)pyrrolidin-1-yl]-4-methyl-3,4,6,10b-tetrahydro-1H-pyrazino[2,1-a]isoindol-2-yl]quinoline-8-carbonitrile]",7.19
6,"CO[C@@H]1CN(c2ccc3c(c2)CN2C3CN(c3ccc(C#N)c4ncccc34)C[C@H]2C)C[C@@H]1N (relative stereo) [Example 17, 5-[(4R,10bS)-8-[cis-3-amino-4-methoxy-pyrrolidin-1-yl]-4-methyl-3,4,6,10b-tetrahydro-1H-pyrazino[2,1-a]isoindol-2-yl]quinoline-8-carbonitrile]",7.09
7,"C[C@@H]1CN(c2ccc(C#N)c3ncccc23)C[C@@H]2c3ccc(N4CCC(C)(N)CC4)cc3CN12 [Example 51, 5-[(4R,10bS)-8-(4-amino-4-methyl-1-piperidyl)-4-methyl-3,4,6,10b-tetrahydro-1H-pyrazino[2,1-a]isoindol-2-yl]quinoline-8-carbonitrile]",6.86
8,"C[C@@H]1CN(c2ccc(C#N)n3nccc23)C[C@@H]2c3ccc(N4C[C@@H](N)[C@H](O)C4)cc3CN12 [Example 110, 4-[(4R,10bS)-8-[(3R,4R)-3-amino-4-hydroxy-pyrrolidin-1-yl]-4-methyl-3,4,6,10b-tetrahydro-1H-pyrazino[2,1-a]isoindol-2-yl]pyrazolo[1,5-a]pyridine-7-carbonitrile]",7.28
9,"C[C@@H]1CN(c2ccc(C#N)n3ncc(F)c23)C[C@@H]2c3ccc(N4C[C@H](N)[C@@](C)(O)C4)cc3CN12 [Example 112, 4-[(4R,10bS)-8-[(3S,4S)-4-amino-3-hydroxy-3-methyl-pyrrolidin-1-yl]-4-methyl-3,4,6,10b-tetrahydro-1H-pyrazino[2,1-a]isoindol-2-yl]-3-fluoro-pyrazolo[1,5-a]pyridine-7-carbonitrile]",6.64
10,"C[C@@H]1CN(c2ccc(C#N)c3ncccc23)C[C@@H]2c3ccc(N4CCNC[C@H]4CO)cc3CN12 [Example 11, 5-[(4R,10S)-8-[(2S)-2-(hydroxymethyl)piperazin-1-yl]-4-methyl-3,4,6,10b-tetrahydro-1H-pyrazino[2,1-a]isoindol-2-yl]quinoline-8-carbonitrile]",7.04
11,"C[C@@H]1CN(c2ccc(C#N)c3ncccc23)C[C@@H]2c3ccc(N4CCNC[C@](C)(O)C4)cc3CN12 [Example 55A, 5-[(4R,10bS)-8-[(6S)-6-hydroxy-6-methyl-1,4-diazepan-1-yl]-4-methyl-3,4,6,10b-tetrahydro-1H-pyrazino[2,1-a]isoindol-2-yl]quinoline-8-carbonitrile]",6.95
12,"C[C@@H]1CN(c2ccc(C#N)c3ncccc23)C[C@@H]2c3ccc(OCCN(C)C)cc3CN12 [Example 25, 5-[(4R,10bS)-8-[2-(dimethylamino)ethoxy]-4-methyl-3,4,6,10b-tetrahydro-1H-pyrazino[2,1-a]isoindol-2-yl]quinoline-8-carbonitrile]",6.94
13,"C[C@@H]1CN(c2ccc(C#N)n3nccc23)C[C@@H]2c3ccc(N4CCOC[C@H](N)C4)cc3CN12 [Example 101, 4-[(4R,10bS)-8-[(6R)-6-amino-1,4-oxazepan-4-yl]-4-methyl-3,4,6,10b-tetrahydro-1H-pyrazino[2,1-a]isoindol-2-yl]pyrazolo[1,5-a]pyridine-7-carbonitrile]",6.78
14,"C[C@@H]1CN(c2ccc(C#N)c3ncccc23)C[C@@H]2c3ccc(N4CCOC[C@H](N)C4)cc3CN12 [Example 54A, 5-[(4R,10bS)-8-[(6R)-6-amino-1,4-oxazepan-4-yl]-4-methyl-3,4,6,10b-tetrahydro-1H-pyrazino[2,1-a]isoindol-2-yl]quinoline-8-carbonitrile]",7.04
15,"C[C@@H]1CN(c2ccc(C#N)c3nccnc23)C[C@@H]2c3ccc(N4CCNCC4)cc3CN12 [Example 7, 8-[(4R,10bS)-4-methyl-8-piperazin-1-yl-3,4,6,10b-tetrahydro-1H-pyrazino[2,1-a]isoindol-2-yl]quinoxaline-5-carbonitrile]",7.00
16,"C[C@@H]1CN(c2ccc(C#N)c3ncccc23)C[C@@H]2c3ccc(N4C[C@H](N)[C@@H](O)C4)cc3CN12 [Example 40A, 5-[(4R,10bS)-8-[(3S,4S)-3-amino-4-hydroxy-pyrrolidin-1-yl]-4-methyl-3,4,6,10b-tetrahydro-1H-pyrazino[2,1-a]isoindol-2-yl]quinoline-8-carbonitrile]",7.23
17,"C[C@@H]1CN(c2ccc(C#N)n3nccc23)C[C@@H]2c3ccc(N4C[C@H](N)[C@@](C)(O)C4)cc3CN12 [Example 109, 4-[(4R,10bS)-8-[(3S,4S)-4-amino-3-hydroxy-3-methyl-pyrrolidin-1-yl]-4-methyl-3,4,6,10b-tetrahydro-1H-pyrazino[2,1-a]isoindol-2-yl]pyrazolo[1,5-a]pyridine-7-carbonitrile]",6.80
18,"C[C@@H]1CN(c2ccc(C#N)n3nccc23)C[C@@H]2c3ccc(N4C[C@H](N)[C@@H](O)C4)cc3CN12 [Example 111, 4-[(4R,10bS)-8-[(3S,4S)-3-amino-4-hydroxy-pyrrolidin-1-yl]-4-methyl-3,4,6,10b-tetrahydro-1H-pyrazino[2,1-a]isoindol-2-yl]pyrazolo[1,5-a]pyridine-7-carbonitrile]",7.42
19,"C[C@@H]1CN(c2ccc3c(c2)CN2[C@H](C)CN(c4ccc(C#N)n5nccc45)C[C@H]32)CCN1 [Example 97, 4-[(4R,10bS)-4-methyl-8-[(3R)-3-methylpiperazin-1-yl]-3,4,6,10b-tetrahydro-1H-pyrazino[2,1-a]isoindol-2-yl]pyrazolo[1,5-a]pyridine-7-carbonitrile]",6.79
